# According to US4294841A, “Derivatives of 1-phenyl 3-(4-piperidyl) 1-propanone usable as drugs” (Pharmindustrie, priority 1978, dated 1981):
# Where two headings read alike, the source gives them in different places.
# Legend:
# [1] = system: uptake of noradrenaline (NA); experiment: inhibition test of the uptake of noradrenaline by synaptosomes of the rat brain (hypothalamus); assay type: biochemical; settings: read-out: I50 NA (hypothalamus)
# Description: (§1) The results are expressed by a 50% inhibitory dose (I50) which represents the dose of product, in micromoles per liter, diminishing by 50% the uptake of the neuromediator considered in the specific regions (hypothalamus, medulla+pons) where the corresponding neurons predominate.
# [2] = system: uptake of serotonin (5-hydroxytryptamine, 5HT); experiment: inhibition test of the uptake of serotonin by synaptosomes of the rat brain (medulla + pons); assay type: biochemical; settings: read-out: I50 5HT (medulla + pons)
# Description: as §1
# [3] = target: receptors for benzodiazepines in the brain membranes (3H-diazepam binding site); experiment: displacement of 3H-diazepam from its binding sites (method of H. Mohler et al.); design: species or system rat
# Text: The anxiolytic activity of the benzodiazepines is well known. The presence of specific receptors for benzodiazepines in the brain membranes of the rat has also been well established (Squires et al. Nature 266, 732, (1977)) and a good correlation exists between the degree of affinity of benzodiazepines for the receiving binding sites and the pharmacodynamic effects observed in the animal and in man.
# The results of Table II have been obtained by testing the products according to the method of H. Mohler et al., Life Sciences 20, 2101 (1977).
# [4] = acute toxicity in the mouse per os; design: species or system Charles River); settings: in vivo, po, male CD1 mouse, 3 days of observation
# Text: The acute toxicities of the compounds of formula (I) have been determined on the male mouse CD1 (Charles River) per os. The LD50 have been calculated, after 3 days of observation, by the cumulative method of J. J. Reed and H. Muench (Amer. J. Hyg. 27, 493, (1938)).
# [5] = system: ventricular arhythmias caused by aconitine; experiment: antiarhythmic activity, aconitine test in rats; assay type: in vivo; settings: Rattus norvegicus, iv, read-out: ED50 (i.v.)
# Description: The principle of the technique rests on the induction time of ventricular arhythmias caused by aconitine which is slowly perfused in rats. An antiarhythmic substance retards the occurrence of arhythmias and this delay is proportional to the activity of the molecule.
# Groups of five male rats are used. An individual anaesthesia is realized (10% urethane: 1 g/kg/ip) to allow a catheterization of the vein of the penis. The electrocardiogram is recorded. At time T=0 the substance investigated is injected in the form of an aqueous solution, at a rate of 2.5 ml of solution per kg in 30 seconds. At time T=90 seconds, that is 1 minute after the end of the injection, aconitine is perfused at a rate of 20 μg per minute until the appearance of supra-ventricular systoles. The time of perfusion of the aconitine is noted.
# The results are expressed by an ED50, which is the dose in mg/kg increasing by 50% the perfusion time of aconitine in comparison with the perfusion time of aconitine for the control animals.
# [6] = calculated from I50, read-out: Ki
smiles,measurement,setting,value
"COc1ccc(CCCC2CCNCC2)cc1 [Example 6, 4-[3-(4-Methoxyphenyl) 1-propyl]piperidine]",IC50,[1],2200 nM
same,IC50,[2],20 nM
same,Ki,[3]; [6],19500 nM
same,LD50 at 72 h,[4],400 mg/kg
"Fc1ccc(CCCC2CCNCC2)cc1 [Example 7, 4-[3-(4-Fluorophenyl)1-propyl]piperidine]",IC50,[1],3000 nM
same,IC50,[2],10 nM
same,Ki,[3]; [6],45000 nM
same,LD50 at 72 h,[4],225 mg/kg
"Clc1ccc(CCCC2CCNCC2)cc1 [Example 8, 4-[3-(4-Chlorophenyl)1-propyl]piperidine]",IC50,[1],900 nM
same,IC50,[2],90 nM
same,Ki,[3]; [6],36000 nM
same,LD50 at 72 h,[4],235 mg/kg
"Clc1ccc(CCCC2CCNCC2)cc1Cl [Example 9, 4-[3-(3,4-dichlorophenyl)1-propyl]piperidine]",IC50,[1],1300 nM
same,IC50,[2],180 nM
same,LD50 at 72 h,[4],600 mg/kg
"Cc1ccc(CCCC2CCNCC2)cc1 [Example 10, 4-[3-(4-Methylphenyl)1-propyl]piperidine]",IC50,[1],300 nM
same,IC50,[2],160 nM
same,Ki,[3]; [6],42000 nM
same,LD50 at 72 h,[4],400 mg/kg
"c1ccc(CCCC2CCNCC2)cc1 [Example 16, 4-[3-(phenyl)propyl]piperidine]",IC50,[1],240 nM
same,IC50,[2],2 nM
same,ED50,[5],2.5 mg/kg
same,LD50 at 72 h,[4],200 mg/kg
"Nc1ccc(CCCC2CCNCC2)cc1 [Example 17, 4-[3-(4-Aminophenyl)propyl]piperidine]",Ki,[3]; [6],36000 nM
"COc1ccc(C(=O)CCC2CCNCC2)cc1 [Example 19, 1-(4-methoxyphenyl) 3-(4-piperidyl) 1-propanone]",Ki,[3]; [6],6500 nM
same,LD50 at 72 h,[4],200 mg/kg
"Oc1ccccc1CCCC1CCNCC1 [Example 20, 2-[3-(4-Piperidyl)propyl]phenol]",ED50,[5],1.2 mg/kg
same,Ki,[3]; [6],29000 nM
"COc1ccc(C(O)CCC2CCNCC2)cc1 (stereo not shown) [Example 22, 1-(4-methoxyphenyl) 3-(4-piperidyl) 1-propanol]",Ki,[3]; [6],32000 nM
same,LD50 at 72 h,[4],800 mg/kg
"CN(C)CCCN1c2ccccc2CCc2ccccc21 [Imipramine, reference compound]",IC50,[1],500 nM
same,IC50,[2],120 nM
same,Ki,[3]; calculated from I50,inactive
"C=C[C@H]1C[N@@]2CC[C@H]1C[C@@H]2[C@@H](O)c1ccnc2ccc(OC)cc12 [Quinidine, reference compound]",ED50,[5],4 mg/kg
